Assay results reported in patent US7718764B2, “Biologically active peptide [sequence] derivatives” (CMS Peptides Patent Holding Company Limited, priority 2004, dated 2010).

Key:
Masugi nephritis rabbits [1] = test: Masugi nephritis in rabbits: urine protein; format: in vivo; settings: 0.1 mg/kg/day i.v.
Procedure: (§1) Twenty-two healthy rabbits were randomized into 5 groups: peptide (107.3 μg/kg/day and 58.5 μg/kg/day, 4 rabbits per group), dexamethasone (0.1 mg/kg/day, 4 rabbits), saline treatment (1 ml/day, 7 rabbits), and normal healthy (3 rabbits). Before the establishment of a disease state in the rabbits, measurements of serum BUN, creatinine, and urine protein over 24 hours were taken for each rabbit. If there was no abnormality in these measurements, the Masugi nephritis model was established in experimental rabbits by intravenous injection of sheep anti-rabbit renal cortex antiserum via the auricular vein, 0.5 ml per injection, one injection every 30 minutes, for a total of 4 injections per rabbit. The normal healthy (control) rabbit group was injected with saline in the same manner. Intravenous administration of the test substances via the auricular vein was started on the day after the injection of the antiserum, once per day, 1 ml per injection, for 30 consecutive days.
Urine was collected from each rabbit over a 24 hour period once per week and the protein content determined by the sulfosalicylic acid method.
(§2) Statistical significance was determined by the t-test of the SPSS software.

Masugi nephritis rabbits [2] = test: Masugi nephritis in rabbits: clearance of sheep anti-rabbit renal cortex IgG antibody (glomerular immunofluorescence); format: in vivo; settings: 0.1 mg/kg/day i.v. 30 days, saline treatment 8.7 ± 0.9
Procedure: as §1, with “Before” for “Twenty-two healthy rabbits were randomized into 5 groups: peptide (107.3 μg/kg/day and 58.5 μg/kg/day, 4 rabbits per group), dexamethasone (0.1 mg/kg/day, 4 rabbits), saline treatment (1 ml/day, 7 rabbits), and normal healthy (3 rabbits). Before”
For observation of the effects of peptides on the clearance of sheep anti-rabbit renal cortex IgG antibody from Masugi nephritis rabbits, on the day after the last test substance administration, the rabbits were sacrificed by suffocation and the right kidney was extirpated, freeze-edged and then immunofluorescently stained for the presence of sheep IgG. The fluorescence-positive area of each glomerulus was counted. Thirty glomeruli per rabbit were examined and the average positive area per glomerulus was calculated.
as §2

mice T-lymphocyte = test: Mice T-lymphocyte transformation induced by ConA in vitro (spleen cells, MTT); format: cell-based, BALB/c mice; settings: for OD: Table 2, ConA 5 μg/ml, 68 hrs
Procedure: The spleens from healthy mice were isolated aseptically and manually dispersed in 10% FBS RPMI-1640 solution using an injection needle. The dispersed cell suspension was further sieved through a 100-gauge 150 μm diameter stainless steel sieve. The spleen cell suspension was adjusted to a density of 4×10^6/ml and was aliquoted onto 96-well cell culture plates at 100 μl/well. Peptides were dissolved in plain RPMI-1640. The design of the groupings was as given below.
Peptide group: 100 μl working peptide solution+75 μl spleen cell suspension+25 μl ConA working solution.
ConA control group: 100 μl RPMI-1640+75 μl spleen cell suspension+25 μl ConA working solution.
Negative control group: 125 μl RPMI-1640+75 μl spleen cell suspension.
The final concentration of ConA in the well was 5 μg/ml. The final concentrations of peptides in the well were 80 μg/ml, 16 μg/ml, 3.2 μg/ml, 0.64 μg/ml, and 0.128 μg/ml. Each peptide group contained three parallel wells, and eight or twelve wells for the control groups. The cells were incubated for 68 hrs at 37° C., 5% CO2. MTT method was used to obtain a reading of OD570 nm of each well referenced at 630 nm on an ELISA reader.

Row | Substance | proteinuria Week 0 (Masugi nephritis rabbits [1]; Week 0, saline treatment 11.72 ± 3.18) [mg/dL] | proteinuria Week 1 (Masugi nephritis rabbits [1]; Week 1, saline treatment 122 ± 91) [mg/dL] | proteinuria Week 2 (Masugi nephritis rabbits [1]; Week 2, saline treatment 160 ± 138) [mg/dL] | proteinuria Week 3 (Masugi nephritis rabbits [1]; Week 3, saline treatment 145 ± 33) [mg/dL] | proteinuria Week 4 (Masugi nephritis rabbits [1]; Week 4, saline treatment 157 ± 71) [mg/dL] | Positive area count/glomerulus (Masugi nephritis rabbits [2]) | OD (mice T-lymphocyte; peptide 0.64 μg/ml, ConA control 0.467 ± 0.043) | OD (mice T-lymphocyte; peptide 80 μg/ml, MTT OD570 nm ref 630 nm, ConA control 0.467 ± 0.043, negative control 0.134 ± 0.011) | Effect on mice T-lymphocyte transformation induced by ConA in vitro (mice T-lymphocyte; at suitable concentrations, vs ConA positive control P<0.05)
1 | Dexamethasone Sodium Phosphate [reference compound] | 9.48 ± 8.46 | 29 ± 12 | 13.6 ± 6.3 | 13.7 ± 3.1 | 25 ± 19 | 7.5 ± 1.0 | – | – | –
2 | VANPK [CMS-010.105] | – | – | – | – | – | – | 0.386 ± 0.008 | 0.407 ± 0.019 | suppress
